Measured values: patent publication USRE39420E1, “1,2-Diphenylpyrrole derivatives, their preparation and their therapeutic uses” (Sankyo Company, Limited, priority 1996, dated 2006)

How the values were obtained:
[1] = system: Carrageenan-induced Paw Edema in rats; assay: Carrageenan-induced paw edema test; format: in vivo, Wistar-Imamichi rats; conditions: Rattus norvegicus, oral, 3 hours after carrageenan, read-out: Inhibition Rate (%)
Experimental: The same test compounds were subjected to the test as those in the Randall-Selitto test of Experiment 3. Wistar-Imamichi rats (males, 6 week old, body weights: 110-120 g) were used in this test.
The method of Winter, et al. [Proc. Soc. Exp. Biol. Med. 111, 544-547, (1962)] was slightly modified to perform the test [Sankyo Annual Research Report 39, 77-111, (1989)]. The rats were fasted for 16 hours prior to use. Inflammatory edema was induced by the subcutaneous injection of 0.05 ml of a 1% carrageenan (Viscarin 402) solution into the right hind paw of the animal. The test compounds were administered orally 30 minutes before injection of carrageenan. The volume of the right hind foot was measured with a Plethysmometer (Trade mark) (Ugo-Basile Co.) just before administration of the test compound and 3 hours after injection of carrageenan to determine the edema intensity [(right foot volume after 3 hours/right foot volume before injection)-1].

[2] = system: yeast-inflamed pain in rats; assay: Analgesic effect on yeast-inflamed pain in rats (Randall-Selitto method); format: in vivo, Wistar-Imamichi rats; conditions: Rattus norvegicus, oral, pain threshold 0.5, 1 and 2 hours after administration, read-out: Efficacy Rate (No. of animals in which drug was effective/No. of animals used in test) (converted)
Experimental: The compound was suspended in 0.5%tragacanth and administered orally at a volume of 5 ml/kg. The control group was administered with 0.5% tragacanth only as a vehicle.
Wistar-Imamichi rats (males, 5 week old, body weights: 80-100 g) were used in this test.
The test was conducted in accordance with the method of Winter and Flataker [J. Pharmacol. Exp. Ther. 150, 165-171, (1965)], which is a modification of the original method of Randall and Selitto [Arch. Int. Pharmacodyn. Ther. 111, 405-419, (1957)]. The rats were fasted for 16 hours prior to use. Inflammation was induced by subcutaneous injection of 0.1 ml of a suspension of 20% beer yeast (Sigma) into the right hind footpad of the animal. After 4.5 hours, increasing pressure was applied to the inflamed footpad at a constant speed using an Analgesy meter (Trade mark) (Ugo-Basile Co.).
First the average of pain threshold values at each time point (0.5, 1, and 2 hr) was calculated in a control group. If a pain threshold value exceeded 2 times the control average value at the same time point even once in the drug-treated groups, then the animal was considered to indicate efficacy. Efficacy rates of the drug were estimated by the evaluation method of Blake [J. Pharm. Pharm. 19, 367-373, (1967)].

gastric mucosa = assay: Irritative effect on gastric mucosa; format: in vivo, Wistar rats; conditions: oral; dose producing 50% incidence of gastric ulcers, 3.5 hours after dosing
Experimental: Experiments were performed according to the method described by Jahn and Adrian [Arzneim.-Forsch. 19, 36, (1969)]. Male Wistar rats weighing approximately 120 g were fasted for 16 hours before the experiment. The drugs were administered orally to rats as described in Experiment 3. Three and the half hours after dosing, the animals were killed under ether-anesthesia and the stomachs were placed into 1% of formalin. The stomach was opened by cutting along the greater curvature and the number and length of lesions were counted under a microscope (6.3×10). The ulcerogenicity in each animal was assessed according to Hitchens et. al. [Pharmacologist 9, 242, (1967)]. Incidence was determined as the rate of rats with 4 or more ulcers of more than 0.5 mm length, and UD50's (doses producing 50% incidence) were calculated from the incidence and the dose by probit (=probability unit) method.

SMILES | inhibition in vivo at 50 mg/kg [1] [%] | responders at 12.5 mg/kg [2] [%] | UD50 (gastric mucosa) [mg/kg]
Cc1cc(-c2ccc(S(N)(=O)=O)cc2)n(-c2ccc(S)cc2)c1 [Example 129, 1-(4-Mercaptophenyl)-4-methyl-2-(4-sulfamoylphenyl)pyrrole] | 62 | 100 | –
COc1ccc(-c2cc(C)cn2-c2ccc(S(N)(=O)=O)cc2)cc1C [Example 69, 4-Methyl-2-(4-methoxy-3-methylphenyl)-1-(4-sulfamoylphenyl)pyrrole] | 55 | 100 | >100
Cc1ccc(-c2cc(C)cn2-c2ccc(S(N)(=O)=O)cc2)cc1 [Example 18, 4-Methyl-2-(4-methylphenyl)-1-(4-sulfamoylphenyl) pyrrole] | 53 | 100 | –
COc1ccc(-c2cc(C)cn2-c2ccc(S(N)(=O)=O)cc2)cc1Cl [Example 79, 2-(3-Chloro-4-methoxyphenyl)-4-methyl-1-(4-sulfamoylphenyl)pyrrole] | – | 100 | >100
Cc1cc(C)cc(-c2cc(C)cn2-c2ccc(S(N)(=O)=O)cc2)c1 [Example 87, 4-Methyl-2-(3,5-dimethylphenyl)-1-(4-sulfamoylphenyl)pyrrole] | – | 100 | –
COc1ccc(-c2cccn2-c2ccc(S(N)(=O)=O)cc2)cc1 [Example 76, 2-(4-Methoxyphenyl)-1-(4-sulfamoylphenyl)pyrrole] | 56 | – | >100
Cc1cc(-c2ccc(S(N)(=O)=O)cc2)n(-c2ccc(F)cc2F)c1 [Example 75, 1-(2,4-Difluorophenyl)-4-methyl-2-(4-sulfamoylphenyl)pyrrole] | 57 | – | –
Cc1cc(-c2ccc(S(N)(=O)=O)cc2)n(-c2ccc(C)c(C)c2)c1 [Example 86, 4-Methyl-1-(3,4-dimethylphenyl)-2-(4-sulfamoylphenyl)pyrrole] | 64 | 100 | –
COc1ccc(-c2cc(C)cn2-c2ccc(S(N)(=O)=O)cc2)cc1F [Example 71, 2-(3-Fluoro-4-methoxylphenyl)-4-methyl-1-(4-sulfamoylphenyl)pyrrole] | – | 100 | >100
CSc1ccc(-c2cc(C)cn2-c2ccc(S(N)(=O)=O)cc2)cc1 [Example 66, 4-Methyl-2-(4-methylthiophenyl)-1-(4-sulfamoylphenyl)pyrrole] | – | 100 | >100
CSc1ccc(-n2c(Cl)ccc2-c2ccc(S(N)(=O)=O)cc2)cc1 [Example 101, 5-Chloro-1-(4-methylthiophenyl)-2-(4-sulfamoylphenyl)pyrrole] | – | 100 | –
COc1ccc(-n2c(Cl)ccc2-c2ccc(S(N)(=O)=O)cc2)cc1 [Example 97, 5-Chloro-1-(4-methoxyphenyl)-2-(4-sulfamoylphenyl)pyrrole] | 63 | 100 | –
CCOc1ccc(-n2c(Cl)ccc2-c2ccc(S(N)(=O)=O)cc2)cc1 [Example 100, 5-Chloro-1-(4-ethoxyphenyl)-2-(4-sulfamoylphenyl) pyrrole] | 57 | 100 | –
Cc1cc(-c2ccccc2)n(-c2ccc(S(N)(=O)=O)cc2)c1 [Example 77, 4-Methyl-2-phenyl-1-(4-sulfamoylphenyl)pyrrole] | – | – | >100
Cc1cc(-c2ccc(S(N)(=O)=O)cc2)n(-c2ccc([S+](C)[O-])cc2)c1 (centres unmarked) [Example 96, 4-Methyl-1-(4-methylsulfinylphenyl)-2-(4-sulfamoylphenyl)pyrrole] | 60 | – | –
COc1ccc(-c2cc(C)cn2-c2ccc(S(=O)(=O)NC(C)=O)cc2)cc1 [Example 82, 1-(4-Acetylaminosulfonylphenyl)-2-(4-methoxyphenyl)-4-methylpyrrole] | 78 | 100 | >100
CCc1cc(-c2ccc(OC)cc2)n(-c2ccc(S(N)(=O)=O)cc2)c1 [Example 64, 4-Ethyl-2-(4-methoxyphenyl)-1-(4-sulfamoylphenyl) pyrrole] | 60 | – | –
CCSc1ccc(-n2cc(C)cc2-c2ccc(S(N)(=O)=O)cc2)cc1 [Example 85, 1-(4-Ethylthiophenyl)-4-methyl-2-(4-sulfamoylphenyl)pyrrole] | 73 | 100 | –
COc1ccc(-n2c(-c3ccc(S(N)(=O)=O)cc3)cc(C)c2Cl)cc1 [Example 99, 5-Chloro-1-(4-methoxyphenyl)-4-methyl-2-(4-sulfamoylphenyl)pyrrole] | 57 | – | –
CSc1ccc(-c2c(C)ccn2-c2ccc(S(N)(=O)=O)cc2)cc1 [Example 88, 3-Methyl-2-(4-methylthiophenyl)-1-(4-sulfamoylphenyl)pyrrole] | 61 | 100 | –
NS(=O)(=O)c1ccc(-c2cccn2-c2ccc(F)cc2)cc1 [Example 19, 1-(4-Fluorophenyl)-2-(4-sulfamoylphenyl)pyrrole] | 65 | 100 | –
CC(=O)Sc1ccc(-n2cc(C)cc2-c2ccc(S(N)(=O)=O)cc2)cc1 [Example 130, 1-(4-Acetylthiophenyl)-4-methyl-2-(4-sulfamoylphenyl)pyrrole] | 73 | 20 | –
Cc1ccc(-c2c(C)ccn2-c2ccc(S(N)(=O)=O)cc2)cc1 [Example 17, 3-Methyl-2-(4-methylphenyl)-1-(4-sulfamoylphenyl) pyrrole] | 67 | – | –
COc1ccc(-n2c(Br)ccc2-c2ccc(S(N)(=O)=O)cc2)cc1 [Example 98, 5-Bromo-1-(4-methoxyphenyl)-2-(4-sulfamoylphenyl)pyrrole] | 55 | – | –
CC(=O)NS(=O)(=O)c1ccc(-n2cc(C)cc2-c2ccc(C)c(C)c2)cc1 [Example 83, 1-(4-Acetylaminosulfonylphenyl)-2-(3,4-dimethylphenyl)-4-methylpyrrole] | 70 | 100 | –
Cc1cc(-c2ccc(Cl)c(Cl)c2)n(-c2ccc(S(N)(=O)=O)cc2)c1 [Example 70, 2-(3,4-Dichlorophenyl)-4-methyl-1-(4-sulfamoylphenyl)pyrrole] | – | – | >100
